These results are taken from publication PMC6155273, “Antiprotozoal Activity of Triazole Derivatives of Dehydroabietic Acid and Oleanolic Acid” (Molecules : A Journal of Synthetic Chemistry and Natural …, 2017).

For data set [1], the system named is axenically grown L. donovani amastigotes. Conditions: literature value, no reference given; read-out: IC50 against axenically grown L. donovani amastigotes; cited from earlier work.
Data set [2] deals with T. cruzi epimastigotes. Put plainly: Antiepimastigote activity, T. cruzi CL-B5 lacZ (CPRG). In kind it is cell-based, Trypanosoma cruzi. As to conditions: Trypanosoma cruzi, clone CL-B5, 72 h. As to the method: For in vitro studies of T. cruzi, the clone CL-B5 was used (donated by Faculty of Pharmacy, Complutense University, Madrid, Spain). Parasites were stably transfected with the Escherichia coli β-galactosidase gene (lacZ). Epimastigotes were grown at 28 °C in liver infusion tryptose broth (Difco, Detroit, MI, USA) with 10% fetal bovine serum (FBS) (Gibco, Carlsbad, CA, USA), penicillin (Ern S.A., Barcelona, Spain), and streptomycin (Reig Jofré S.A., Barcelona, Spain), as described previously, and harvested during the exponential growth phase. Briefly, the screening assay was performed in 96-well microplates (Sarstedt, Inc., Newton, NC, USA) with cultures that had not reached the stationary phase. Epimastigotes were seeded at 2 × 10^5 parasites/mL in 200 µL growth media. The plates were then incubated with the respective compounds at 28 °C for 72 h; afterwards, 50 µL of chlorophenol red-β-D-galactopyranoside (CPRG) solution was added, resulting in a final concentration of 200 µM. The plates were incubated at 37 °C for an additional 4 h and then read at 595 nm. Each concentration was tested in triplicate. The efficacy of each compound was estimated by calculating the IC50 values. These values were calculated by the sigmoidal dose–response curve adjustment using the statistical software program Graph-Pad Prims 3.0 (GraphPhad, San Diego, CA, USA). Benznidazole was used as the reference drug.

The test system of data set [3] is L. braziliensis promastigotes. The data set can be described thus: Leishmanicidal activity on L. braziliensis promastigotes (resazurin). In kind it is cell-based, Leishmania braziliensis. As to conditions: Leishmania braziliensis, 48 h, read-out: Leishmanicidal Activity on Promastigotes, L. braziliensis, IC50. As to the method:
(§1) Culture of L. braziliensis (MHOM/BR/75/M2904), and L. infantum (MHOM/FR/91/LEM2259V) was obtained from the Facultad de Farmacia (Universidad Complutense de, Madrid, Spain). The maintenance of the strains, the form of cultivation, and the isolation of shape promastigota were performed following the procedures described by Roldos et al.. The promastigotes were grown at 22 °C in Schneider’s Drosophila medium supplemented with 20% FBS. The assay was performed using a modification of a previous method. Promastigotes (2 × 10^6 parasites/well) were cultured in 96-well plastic plates. Compounds were dissolved in dimethylsulfoxide (DMSO). Different dilutions of the compounds with a final volume up to 200 µL were added. After 48 h at 26 °C, 20 µL of a 2 mM resazurin solution was added, and the oxidation-reduction was quantified at 570 and 600 nm. The solution of resazurin was prepared at 2.5 mM in phosphate buffered solution (PBS), pH 7.4, and filtered through 0.22 µm prior to use. All tests were carried out in triplicate. Resazurin sodium salt was obtained from Sigma-Aldrich (St. Louis, MO, USA) and stored at 4 °C protected from light. The efficacy of each compound was estimated by calculating the IC50 values.
On the technique in general: Resazurin is reduced to fluorescent resorufin, in cell work by metabolically active cells.

A short description of data set [4]: Cytotoxicity on NCTC-Clone 929 fibroblasts (resazurin). In kind it is cell-based. Conditions: mouse. As to the method: The cell line used was NCTC-Clone 929, which was grown in Minimal Essential Medium (Sigma) supplemented with 10% heat-inactivated FBS, penicillin G (100 U/mL), and streptomycin (100 µg/mL). Cell cultures were maintained at 37 °C in a humidified 5% CO2 atmosphere. The procedure for cell viability measurement was evaluated with resazurin by a colorimetric method. The cells were plated in 96-microtiter plates at 3 × 10^4 cells per well in a 100 µL growth medium. The cells were grown overnight at 37 °C, 5% CO2. Thereafter, the medium was removed and the compounds were added in a 200 µL medium for 24 h. After incubation, 20 µL of a 2 mM resazurin solution was added to each well. The plates were incubated for 3 h to allow optimal oxidation-reduction. The reduction of resazurin was determined by dual wavelength absorbance measurement at 490 and 595 nm. Background was subtracted. Each concentration was assayed three times. Medium and drug controls were used in each test as blanks.

Data set [5] deals with L. infantum promastigotes. The data set can be described thus: Leishmanicidal activity on L. infantum promastigotes (resazurin). As to conditions: Leishmania infantum, 48 h, read-out: Leishmanicidal Activity on Promastigotes, L. infantum, IC50. In kind it is cell-based, Leishmania infantum. As to the method:
as §1

The test system of data set [6] is L. braziliensis, L. amazonensis, and L. infantum promastigotes. Set-up: method as in PMID 26772973. Conditions: read-out: IC50 against promastigotes of three Leishmania species; cited from earlier work.
Data set [7] relates to L. amazonensis amastigote. Set-up: method as in PMID 15070160. Conditions: cited from earlier work.
In data set [8] the test system is L. amazonensis promastigote. More on the design: method as in PMID 15070160. As to conditions: cited from earlier work.
Data set [9] concerns L. braziliensis, L. amazonensis, and L. infantum amastigote. More on the design: method as in PMID 26772973. Conditions: read-out: IC50 against amastigote of three Leishmania species; cited from earlier work.
In data set [10] the test system is L. donovani promastigotes. More on the design: method as in PMID 19067375. As to conditions: cited from earlier work.

SMILES strings stand for the structures. pIC50: −log10 of the molar value. Converted amounts (≈) assume the structure as drawn. Read-outs that look alike come from different tables or passages of the source.

As for `COc1c(C(C)C)cc2c(c1O)[C@@]1(C(=O)O)CCCC(C)(C)[C@@H]1CC2` [12-methoxycarnosic acid], the pIC50 in [1] was 6.12.
For `C#CCCCC(=O)O[C@H]1CC[C@@]2(C)C(CC[C@]3(C)C2CC=C2[C@@H]4CC(C)(C)CC[C@]4(C(=O)OC)CC[C@]23C)C1(C)C` (some centres unmarked) [Compound 20], the IC50 in [2], in data set [3] and in data set [5] was greater than 256 µg/mL throughout. Also, in [4], the half-inhibitory concentration (IC50) at 24 h is greater than 256 µg/mL.
As to `CC1(C)CC[C@]2(C(=O)O)CC[C@]3(C)C(=CCC4[C@@]5(C)CC[C@H](OC(=O)CCc6cn(-c7ccccc7)nn6)C(C)(C)C5CC[C@]43C)[C@@H]2C1` (some centres unmarked) [Compound 21], the IC50 in [2], in [3] and in data set [5] was greater than 256 µg/mL in each case. The molecule further showed an IC50 at 24 h in [4] greater than 256 µg/mL.
For `COC(=O)[C@]12CCC(C)(C)C[C@H]1C1=CCC3[C@@]4(C)CC[C@H](OC(=O)CCc5cn(-c6ccccc6)nn5)C(C)(C)C4CC[C@@]3(C)[C@]1(C)CC2` (some centres unmarked) [Compound 22], the IC50 in [2], in data set [3] and in data set [5] was greater than 256 µg/mL throughout. The molecule also came in with a 50% inhibitory concentration (IC50) at 24 h in [4] greater than 256 µg/mL.
For the molecule `COc1ccc(-n2cc(CCC(=O)O[C@H]3CC[C@@]4(C)C(CC[C@]5(C)C4CC=C4[C@@H]6CC(C)(C)CC[C@]6(C(=O)O)CC[C@]45C)C3(C)C)nn2)cc1` (some centres unmarked) [Compound 23], the IC50 in [2], in data set [3] and in [5] was greater than 256 µg/mL throughout. The same molecule displayed an IC50 at 24 h in data set [4] greater than 256 µg/mL.
As to `COC(=O)[C@]12CCC(C)(C)C[C@H]1C1=CCC3[C@@]4(C)CC[C@H](OC(=O)CCc5cn(-c6ccc(OC)cc6)nn5)C(C)(C)C4CC[C@@]3(C)[C@]1(C)CC2` (some centres unmarked) [Compound 24], the IC50 in data set [2], in data set [3] and in [5] was greater than 256 µg/mL throughout. Also, the half-maximal inhibitory concentration (IC50) at 24 h in data set [4] was greater than 256 µg/mL.
On to `CC1(C)CC[C@]2(C(=O)O)CC[C@]3(C)C(=CCC4[C@@]5(C)CC[C@H](OC(=O)CCc6cn(Cc7ccc(Cl)cc7)nn6)C(C)(C)C5CC[C@]43C)[C@@H]2C1` (some centres unmarked) [Compound 25], for which the IC50 in data set [2], in data set [3] and in [5] was greater than 256 µg/mL each time. Moreover, in data set [4], the IC50 at 24 h is greater than 256 µg/mL.
As for `COC(=O)[C@]12CCC(C)(C)C[C@H]1C1=CCC3[C@@]4(C)CC[C@H](OC(=O)CCc5cn(Cc6ccc(Cl)cc6)nn5)C(C)(C)C4CC[C@@]3(C)[C@]1(C)CC2` (some centres unmarked) [Compound 26], the IC50 in data set [2], in data set [3] and in data set [5] was greater than 256 µg/mL in each case. Moreover, in data set [4], the half-maximal inhibitory concentration (IC50) at 24 h was greater than 256 µg/mL.
As to `Cc1ccc(S(=O)(=O)n2cc(CCC(=O)O[C@H]3CC[C@@]4(C)C(CC[C@]5(C)C4CC=C4[C@@H]6CC(C)(C)CC[C@]6(C(=O)O)CC[C@]45C)C3(C)C)nn2)cc1` (some centres unmarked) [Compound 27], the IC50 in data set [2] was 43 µg/mL (≈ 58.6 µM); in data set [3] (promastigotes) it was greater than 256 µg/mL; in data set [5] (promastigotes), greater than 256 µg/mL. The IC50 at 24 h in data set [4] was greater than 256 µg/mL.
In the case of `COC(=O)[C@]12CCC(C)(C)C[C@H]1C1=CCC3[C@@]4(C)CC[C@H](OC(=O)CCc5cn(S(=O)(=O)c6ccc(C)cc6)nn5)C(C)(C)C4CC[C@@]3(C)[C@]1(C)CC2` (some centres unmarked) [Compound 28], the IC50 was 61 µg/mL (≈ 81.5 µM) in data set [2], greater than 256 µg/mL in data set [3] (promastigotes) and greater than 256 µg/mL in data set [5] (promastigotes). The 50% inhibitory concentration (IC50) at 24 h in data set [4] was greater than 256 µg/mL.
With `CC1(C)CC[C@]2(C(=O)O)CC[C@]3(C)C(=CCC4[C@@]5(C)CC[C@H](OC(=O)CCc6cn(CSc7ccccc7)nn6)C(C)(C)C5CC[C@]43C)[C@@H]2C1` (some centres unmarked) [Compound 29], the IC50 in data set [2], in [3] and in data set [5] was greater than 256 µg/mL each time. This molecule also displayed an IC50 at 24 h in data set [4] greater than 256 µg/mL.
Regarding `COC(=O)[C@]12CCC(C)(C)C[C@H]1C1=CCC3[C@@]4(C)CC[C@H](OC(=O)CCc5cn(CSc6ccccc6)nn5)C(C)(C)C4CC[C@@]3(C)[C@]1(C)CC2` (some centres unmarked) [Compound 30], the IC50 in [2], in data set [3] and in data set [5] was greater than 256 µg/mL each time. In addition, the IC50 at 24 h in data set [4] was greater than 256 µg/mL.
As to `Cc1ccc(S(=O)(=O)n2cc(CCCC(=O)O[C@H]3CC[C@@]4(C)C(CC[C@]5(C)C4CC=C4[C@@H]6CC(C)(C)CC[C@]6(C(=O)O)CC[C@]45C)C3(C)C)nn2)cc1` (some centres unmarked) [Compound 31], the IC50 in data set [2] was greater than 256 µg/mL; in data set [3] it was greater than 256 µg/mL; in data set [5] (promastigotes), 128 µg/mL (≈ 171 µM). In addition, the IC50 at 24 h in data set [4] is greater than 256 µg/mL.
Regarding `CC1(C)CC[C@]2(C(=O)O)CC[C@]3(C)C(=CC[C@@H]4[C@@]5(C)CC[C@H](O)C(C)(C)[C@@H]5CC[C@]43C)[C@@H]2C1` [OA, Oleanolic acid], the IC50 in data set [2], in data set [3] and in data set [5] was greater than 256 µg/mL in each case. Besides, the negative-log IC50 (pIC50) is 4.18 to 4.52 in data set [6] and 4.16 to 4.42 in [9]. The “IC50 against amastigote stage of L. amazonensis” value in data set [7] is 11 µg/mL. Further, the “IC50 against promastigote stage of L. amazonensis” value in [8] is 10 µg/mL.
For the molecule `C[C@H]1[C@H](C)CC[C@]2(C(=O)O)CC[C@]3(C)C(=CC[C@@H]4[C@@]5(C)CC[C@H](O)C(C)(C)[C@@H]5CC[C@]43C)[C@H]12` [Ursolic acid], the “IC50 against amastigote stage of L. amazonensis” value in data set [7] is 27 µg/mL. Besides, the “IC50 against promastigote stage of L. amazonensis” value in [8] is 5 µg/mL.
For `CC(C)c1cc2c(cc1O)[C@@]1(C)CCCC(C)(C)[C@@H]1CC2` [ferruginol], in [10], the “IC50 against L. donovani promastigotes” value was 3.5 µg/mL (≈ 12.2 µM) and the “IC90 against L. donovani promastigotes” value was 7.0 µg/mL (≈ 24.4 µM).
With `CC(C)c1c(O)ccc2c1CC[C@H]1C(C)(C)CCC[C@]21C` [totarol], in data set [10], the “IC50 against L. donovani promastigotes” value was 3.5 µg/mL (≈ 12.2 µM) and the “IC90 against L. donovani promastigotes” value is 6.9 µg/mL (≈ 24.1 µM).

A word on the pIC50: it is the negative decadic logarithm of the IC50, by convention in mol/L. By IC50 is commonly meant the point on the concentration scale where inhibition reaches its midpoint.
